From patent US11141410B2 (MERCK SHARP & DOHME CORP., priority 2015, dated 2021)

Columns and labels:
[1] = system: MRSA COL (MB5393); assay: TarO Inhibitor/β-Lactam Synergy Assay (growth, OD600); type: cell-based, Staphylococcus aureus; details: for MITC95 TarO inhibitor + 4 μg/mL IPM; Bacteria: SA_MB5393: in combination with 4 μg/mL imipenem (IPM); for MITC95 TarO inhibitor + 8 μg/mL DCX; Bacteria: SA_MB5393: in combination with 8 μg/mL dicloxacillin (DCX)
How it was run: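 TarO inhibitors titrated 2-fold from 200 μM (2% DMSO) against MRSA COL, 5×10^5 CFU in CAMHB, with β-lactam fixed at clinical breakpoint (imipenem 4 μg/ml or dicloxacillin 8 μg/ml). Incubated 20 h at 37 °C without shaking; relative growth read as OD600.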

[2] = system: MRSA COL (MB5393); assay: as above; type: cell-based; details: Staphylococcus aureus, TarO inhibitor alone, >200 μM = 95% growth inhibition not achieved, 20 hours at 37° C., read-out: MITC95 TarO inhibitor alone, Bacteria: SA_MB5393

Compound | MITC95 TarO inhibitor + 4 μg/mL IPM; Bacteria: SA_MB5393 [1] [µM] | IC95 [2] [µM] | MITC95 TarO inhibitor + 8 μg/mL DCX; Bacteria: SA_MB5393 [1] [µM]
C[C@H]1[C@@H](c2cc(F)c(F)c(F)c2)OC(=O)N1C(=O)CCc1cncc2ccccc12 [Example 78, (4S,5R)-3-(3-isoquinolin-4-ylpropanoyl)-4-methyl-5-(3,4,5-trifluorophenyl)-1,3-oxazolidin-2-one] | 1.17 | > 200 | –
Cc1cc(F)cc([C@H]2OC(=O)N(C(=O)CCc3cncc4ccccc34)[C@H]2C)c1 [Example 79, (4S,5R)-5-(3-fluoro-5-methylphenyl)-3-(3-isoquinolin-4-ylpropanoyl)-4-methyl-1,3-oxazolidin-2-one] | 1.17 | > 200 | 12.50
C[C@H]1[C@@H](c2cccc(F)c2)OC(=O)N1C(=O)CCc1cncc2ccccc12 [Example 80, (4S,5R)-5-(3-fluorophenyl)-3-(3-isoquinolin-4-ylpropanoyl)-4-methyl-1,3-oxazolidin-2-one] | 4.69 | > 200 | –
COc1cccc([C@H]2OC(=O)N(C(=O)CCc3cccc4ccccc34)[C@H]2C)n1 [Example 81, (4S,5S)-5-(6-methoxypyridin-2-yl)-4-methyl-3-(3-naphthalen-1-ylpropanoyl)-1,3-oxazolidin-2-one] | 0.75 | > 200 | 100.00
C[C@H]1[C@@H](c2ccc(F)c(F)c2)OC(=O)N1C(=O)CCc1cncc2ccccc12 [Example 82, (4S,5R)-5-(3,4-difluorophenyl)-3-(3-isoquinolin-4-ylpropanoyl)-4-methyl-1,3-oxazolidin-2-one] | 9.38 | > 200 | –
CC[C@H]1[C@@H](c2cc(C(F)(F)F)cc(C(F)(F)F)c2)OC(=O)N1C(=O)CCc1cncc2ccccc12 [Example 83, (4S,5R)-5-[3,5-bis(trifluoromethyl)phenyl]-4-ethyl-3-(3-isoquinolin-4-ylpropanoyl)-1,3-oxazolidin-2-one] | 0.06 | > 200 | 0.59
C[C@H]1[C@@H](c2cccc(Br)n2)OC(=O)N1C(=O)CCc1cccc2ccccc12 [Example 84, (4S,5S)-5-(6-bromopyridin-2-yl)-4-methyl-3-(3-naphthalen-1-ylpropanoyl)-1,3-oxazolidin-2-one] | 1.56 | > 200 | 100
O=C(CCc1cncc2ccccc12)N1C[C@H](c2cc(C(F)(F)F)cc(C(F)(F)F)c2)OC1=O [Example 85, (5S)-5-[3,5-bis(trifluoromethyl)phenyl]-3-(3-isoquinolin-4-ylpropanoyl)-1,3-oxazolidin-2-one] | 0.55 | > 200 | 25.00
O=C(CCc1cncc2ccccc12)N1CC(c2cccc(F)c2F)OC1=O (stereo not drawn) [Example 86, 5-(2,3-difluorophenyl)-3-(3-isoquinolin-4-ylpropanoyl)-1,3-oxazolidin-2-one] | 1.41 | > 200 | 8.33
COc1cccc([C@H]2OC(=O)N(C(=O)CCc3cncc4ccccc34)[C@H]2C)c1 [Example 87, (4S,5R)-3-(3-isoquinolin-4-ylpropanoyl)-5-(3-methoxyphenyl)-4-methyl-1,3-oxazolidin-2-one] | 2.08 | > 200 | 50
C[C@H]1[C@@H](c2cc(Br)cc(C(F)(F)F)c2)OC(=O)N1C(=O)CCc1cncc2ccccc12 [Example 88, (4S,5R)-5-[3-bromo-5-(trifluoromethyl)phenyl]-3-(3-isoquinolin-4-ylpropanoyl)-4-methyl-1,3-oxazolidin-2-one] | 1.30 | > 200 | 6.25
C[C@H]1[C@@H](c2cc(C(F)(F)F)ccn2)OC(=O)N1C(=O)CCc1cncc2ccccc12 [Example 89, (4S,5S)-3-(3-(isoquinolin-4-yl)propanoyl)-4-methyl-5-(4-(trifluoromethyl)pyridin-2-yl)oxazolidin-2-one] | 6.25 | > 200 | 75
Cc1cccc(OCC(=O)N2C(=O)O[C@H](c3cccc(C(F)(F)F)c3)[C@@H]2C)c1C [Example 90, (4S,5R)-3-(2-(2,3-dimethylphenoxy)acetyl)-4-methyl-5-(3-(trifluoromethyl)-phenyl)oxazolidin-2-one] | 0.39 | > 200 | 12.50
C[C@H]1[C@@H](c2cc(C(F)(F)F)cc(C(F)(F)F)c2)OC(=O)N1C(=O)COc1cccc2ccccc12 [Example 91, (4S,5R)-5-[3,5-bis(trifluoro-methyl)phenyl]-4-methyl-3-[(naphthalen-1-yloxy)acetyl]-1,3-oxazolidin-2-one] | 0.76 | > 200 | 4.69
Cc1ccc2c(n1)N(CCC(=O)N1C(=O)O[C@H](c3cc(F)cc(C(F)(F)F)c3)[C@@H]1C)CCO2 [Example 92, (4S,5R)-5-(3-fluoro-5-(trifluoromethyl)phenyl)-4-methyl-3-(3-(6-methyl-2,3-dihydro-4H-pyrido[3,2-b][1,4]oxazin-4-yl)propanoyl)oxazolidin-2-one] | 0.51 | > 200 | 7.50
COc1cc([C@H]2OC(=O)N(C(=O)NCc3cncc4cccnc34)C[C@H]2C)cc(C(F)(F)F)c1 [Example 94, (5R,6S)-6-[3-methoxy-5-(trifluoromethyl)phenyl]-5-methyl-N-(1,6-naphthyridin-8-ylmethyl)-2-oxo-1,3-oxazinane-3-carboxamide] | 3.52 | > 200 | 44
C[C@@H]1NN(C(=O)NCc2cncc3ccccc23)C(=O)O[C@@H]1c1cc(F)cc(C(F)(F)F)c1 [Example 95] | 5.21 | > 200 | 4.17
